According to PubChem BioAssay AID1963969 (Molecular Pharmacology Branch, DTP, NCI, 2024):
pIC50: −log10 of the molar value.

Test system: 817829-284-R-J1-PDC multi-cell spheroid viability
Assay: Anticancer human tumor 817829-284-R-J1-PDC patient-derived colon adenocarcinoma cell line growth inhibition [PI3K]
Settings: for pIC50: curve of first compound; for viability, T/C: stronger effect = lower value
In short: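 Multi-cell spheroids combine tumor cells with HUVEC and human MSCs, treated with targeted agents alone or with inavolisib, alpelisib, duvelisib or copanlisib. Concentrations fall in half-log steps from at or near clinical Cmax, or from 10 microM where Cmax is unknown; viability read-out.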

[1] = second compound 0.00316 µM, first compound 0.0316 µM
[2] = second compound 0.00316 µM, first compound 0.1 µM
[3] = second compound 0.00316 µM, first compound 0.316 µM
[4] = second compound 0.00316 µM, first compound 1 µM
[5] = second compound 0.00316 µM, first compound 3.16 µM
[6] = second compound 0.00316 µM, first compound 10 µM
[7] = second compound 0.01 µM, first compound 0.0316 µM
[8] = second compound 0.01 µM, first compound 0.1 µM
[9] = second compound 0.01 µM, first compound 0.316 µM
[10] = second compound 0.01 µM, first compound 1 µM
[11] = second compound 0.01 µM, first compound 3.16 µM
[12] = second compound 0.01 µM, first compound 10 µM
[13] = second compound 0.0316 µM, first compound 0.0316 µM
[14] = second compound 0.0316 µM, first compound 0.1 µM
[15] = second compound 0.0316 µM, first compound 0.316 µM
[16] = second compound 0.0316 µM, first compound 1 µM
[17] = second compound 0.0316 µM, first compound 3.16 µM
[18] = second compound 0.0316 µM, first compound 10 µM
[19] = second compound 0.1 µM, first compound 0.0316 µM
[20] = second compound 0.1 µM, first compound 0.1 µM
[21] = second compound 0.1 µM, first compound 0.316 µM
[22] = second compound 0.1 µM, first compound 1 µM
[23] = second compound 0.1 µM, first compound 3.16 µM
[24] = second compound 0.1 µM, first compound 10 µM
[25] = second compound 0.316 µM, first compound 0.0316 µM
[26] = second compound 0.316 µM, first compound 0.1 µM
[27] = second compound 0.316 µM, first compound 0.316 µM
[28] = second compound 0.316 µM, first compound 1 µM
[29] = second compound 0.316 µM, first compound 3.16 µM
[30] = second compound 0.316 µM, first compound 10 µM
[31] = second compound 1 µM, first compound 0.0316 µM
[32] = second compound 1 µM, first compound 0.1 µM
[33] = second compound 1 µM, first compound 0.316 µM
[34] = second compound 1 µM, first compound 1 µM
[35] = second compound 1 µM, first compound 3.16 µM
[36] = second compound 1 µM, first compound 10 µM
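Also: spheroids exposed to agents for seven days before readout.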
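For viability, T/C in this document: percent of vehicle DMSO control viability which is 100%.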

In the case of C#Cc1c(F)ccc2cc(O)cc(-c3ncc4c(N5CC6CCC(C5)N6)nc(OCC56CCCN5CC(F)C6)nc4c3F)c12 (stereo not drawn) + CC(Nc1ccc2c(c1)OCCn1cc(N3C(=O)OCC3C(F)F)nc1-2)C(N)=O, the pIC50 (second compound 0.00316 µM) was 5.06, the pIC50 (second compound 0.01 µM) was 5.29 and the pIC50 (second compound 0.0316 µM) was < 5.00. For the same molecule, the pIC50 (second compound 0.1 µM) was < 5.00, the pIC50 (second compound 0.316 µM) was 5.36 and the pIC50 (second compound 1 µM) was > 7.50. It also gave a viability, T/C [1] of 83.7%, a viability, T/C [2] of 75.3% and a viability, T/C [3] of 87.4%. The viability, T/C [4] was 77.4%, the viability, T/C [5] was 69.9% and the viability, T/C [6] was 47.2%. The viability, T/C [7] was 90%, the viability, T/C [8] was 84.8% and the viability, T/C [9] was 72.7%. It also gave a viability, T/C [10] of 79.9%, a viability, T/C [11] of 56.1% and a viability, T/C [12] of 38.3%. It also gave a viability, T/C [13] of 74.9%, a viability, T/C [14] of 69.8% and a viability, T/C [15] of 58.5%. For the same molecule, the viability, T/C [16] was 65.9%, the viability, T/C [17] was 63.5% and the viability, T/C [18] was 47.8%. For the same molecule, the viability, T/C [19] was 64.9%, the viability, T/C [20] was 79.8% and the viability, T/C [21] was 56.1%. It also gave a viability, T/C [22] of 80.5%, a viability, T/C [23] of 77.8% and a viability, T/C [24] of 39%. The viability, T/C [25] was 53.5%, the viability, T/C [26] was 83.5% and the viability, T/C [27] was 48.6%. The viability, T/C [28] was 71.2%, the viability, T/C [29] was 54.7% and the viability, T/C [30] was 32.2%. For the same molecule, the viability, T/C [31] was 45.1%, the viability, T/C [32] was 45.3% and the viability, T/C [33] was 47.8%. It also gave a viability, T/C [34] of 60.3%, a viability, T/C [35] of 59.9% and a viability, T/C [36] of 30.2%.
CC(Cn1ccc(-c2ccc(C#N)c(Cl)c2)n1)NC(=O)c1cc(C(C)O)[nH]n1 (stereo not drawn) + CC(Nc1ccc2c(c1)OCCn1cc(N3C(=O)OCC3C(F)F)nc1-2)C(N)=O was tested, and the pIC50 (second compound 0.00316 µM) was < 5.00, the pIC50 (second compound 0.01 µM) was 5.05 and the pIC50 (second compound 0.0316 µM) was < 5.00. For the same molecule, the pIC50 (second compound 0.1 µM) was < 5.00, the pIC50 (second compound 0.316 µM) was < 5.00 and the pIC50 (second compound 1 µM) was < 5.00. The viability, T/C [1] was 91.8%, the viability, T/C [2] was 127% and the viability, T/C [3] was 99%. The viability, T/C [4] was 96.2%, the viability, T/C [5] was 94.4% and the viability, T/C [6] was 53.1%. The viability, T/C [7] was 140%, the viability, T/C [8] was 86.2% and the viability, T/C [9] was 86.4%. For the same molecule, the viability, T/C [10] was 70.8%, the viability, T/C [11] was 63.5% and the viability, T/C [12] was 57.4%. It also gave a viability, T/C [13] of 67.4%, a viability, T/C [14] of 96.8% and a viability, T/C [15] of 78%. The viability, T/C [16] was 78.6%, the viability, T/C [17] was 74.1% and the viability, T/C [18] was 59.9%. The viability, T/C [19] was 81.5%, the viability, T/C [20] was 114% and the viability, T/C [21] was 62.3%. For the same molecule, the viability, T/C [22] was 117%, the viability, T/C [23] was 79.5% and the viability, T/C [24] was 55.3%. It also gave a viability, T/C [25] of 77.1%, a viability, T/C [26] of 66.1% and a viability, T/C [27] of 76.8%. For the same molecule, the viability, T/C [28] was 58.7%, the viability, T/C [29] was 110% and the viability, T/C [30] was 46.4%. It also gave a viability, T/C [31] of 75.5%, a viability, T/C [32] of 39% and a viability, T/C [33] of 65.6%. The viability, T/C [34] was 72.9%, the viability, T/C [35] was 60% and the viability, T/C [36] was 50.8%.
With CC1(C)CCC(Nc2ncc(C(F)(F)F)c(-c3c[nH]c4c(P(C)(C)=O)c(C#N)ccc34)n2)CN1 (stereo not drawn) + CC(Nc1ccc2c(c1)OCCn1cc(N3C(=O)OCC3C(F)F)nc1-2)C(N)=O the pIC50 (second compound 0.00316 µM) was > 7.50, the pIC50 (second compound 0.01 µM) was > 7.50 and the pIC50 (second compound 0.0316 µM) was > 7.50. The pIC50 (second compound 0.1 µM) was > 7.50, the pIC50 (second compound 0.316 µM) was > 7.50 and the pIC50 (second compound 1 µM) was > 7.50. For the same molecule, the viability, T/C [1] was 27.5%, the viability, T/C [2] was 24.9% and the viability, T/C [3] was 36.7%. The viability, T/C [4] was 28.7%, the viability, T/C [5] was 30% and the viability, T/C [6] was 0.96%. The viability, T/C [7] was 26.9%, the viability, T/C [8] was 25.7% and the viability, T/C [9] was 25.2%. It also gave a viability, T/C [10] of 33.6%, a viability, T/C [11] of 26.4% and a viability, T/C [12] of 1.03%. For the same molecule, the viability, T/C [13] was 24.1%, the viability, T/C [14] was 28.1% and the viability, T/C [15] was 25.9%. It also gave a viability, T/C [16] of 32%, a viability, T/C [17] of 24.6% and a viability, T/C [18] of 0.85%. It also gave a viability, T/C [19] of 25.2%, a viability, T/C [20] of 28.4% and a viability, T/C [21] of 32.1%. It also gave a viability, T/C [22] of 27.7%, a viability, T/C [23] of 29.2% and a viability, T/C [24] of 1.66%. For the same molecule, the viability, T/C [25] was 23.4%, the viability, T/C [26] was 28.7% and the viability, T/C [27] was 26%. The viability, T/C [28] was 22.8%, the viability, T/C [29] was 27.9% and the viability, T/C [30] was 1.09%. It also gave a viability, T/C [31] of 21.7%, a viability, T/C [32] of 24.1% and a viability, T/C [33] of 25.8%. For the same molecule, the viability, T/C [34] was 26.2%, the viability, T/C [35] was 26.6% and the viability, T/C [36] was 1.56%.
In the case of CC(=O)c1c(C)c2cnc(Nc3ccc(N4CCNCC4)cn3)nc2n(C2CCCC2)c1=O + CC(Nc1ncnc2nc[nH]c12)c1cc2cccc(Cl)c2c(=O)n1-c1ccccc1, the pIC50 (second compound 0.0316 µM) was 7.15, the pIC50 (second compound 0.1 µM) was 7.13 and the pIC50 (second compound 0.316 µM) was < 7.00. The pIC50 (second compound 1 µM) was 7.15, the pIC50 (second compound 3.16 µM) was 7.84 and the pIC50 (second compound 10 µM) was 7.48. For the same molecule, the viability, T/C (second compound 0.0316 µM, first compound 0.000316 µM) was 96%, the viability, T/C (second compound 0.0316 µM, first compound 0.001 µM) was 68.1% and the viability, T/C (second compound 0.0316 µM, first compound 0.00316 µM) was 74.3%. It also gave a viability, T/C (second compound 0.0316 µM, first compound 0.01 µM) of 75.4%, a viability, T/C [13] of 77% and a viability, T/C [14] of 38.6%. It also gave a viability, T/C (second compound 0.1 µM, first compound 0.000316 µM) of 92.5%, a viability, T/C (second compound 0.1 µM, first compound 0.001 µM) of 79.8% and a viability, T/C (second compound 0.1 µM, first compound 0.00316 µM) of 74.5%. It also gave a viability, T/C (second compound 0.1 µM, first compound 0.01 µM) of 90.2%, a viability, T/C [19] of 79% and a viability, T/C [20] of 39.4%. For the same molecule, the viability, T/C (second compound 0.316 µM, first compound 0.000316 µM) was 90.8%, the viability, T/C (second compound 0.316 µM, first compound 0.001 µM) was 85% and the viability, T/C (second compound 0.316 µM, first compound 0.00316 µM) was 101%. It also gave a viability, T/C (second compound 0.316 µM, first compound 0.01 µM) of 60.2%, a viability, T/C [25] of 56.5% and a viability, T/C [26] of 51.3%. For the same molecule, the viability, T/C (second compound 1 µM, first compound 0.000316 µM) was 101%, the viability, T/C (second compound 1 µM, first compound 0.001 µM) was 73.1% and the viability, T/C (second compound 1 µM, first compound 0.00316 µM) was 78.7%. It also gave a viability, T/C (second compound 1 µM, first compound 0.01 µM) of 83.5%, a viability, T/C [31] of 59.8% and a viability, T/C [32] of 43.5%. For the same molecule, the viability, T/C (second compound 3.16 µM, first compound 0.000316 µM) was 65%, the viability, T/C (second compound 3.16 µM, first compound 0.001 µM) was 134% and the viability, T/C (second compound 3.16 µM, first compound 0.00316 µM) was 78.8%. It also gave a viability, T/C (second compound 3.16 µM, first compound 0.01 µM) of 57.5%, a viability, T/C (second compound 3.16 µM, first compound 0.0316 µM) of 37.8% and a viability, T/C (second compound 3.16 µM, first compound 0.1 µM) of 42.7%. The viability, T/C (second compound 10 µM, first compound 0.000316 µM) was 60.1%, the viability, T/C (second compound 10 µM, first compound 0.001 µM) was 54.4% and the viability, T/C (second compound 10 µM, first compound 0.00316 µM) was 51%. The viability, T/C (second compound 10 µM, first compound 0.01 µM) was 66.3%, the viability, T/C (second compound 10 µM, first compound 0.0316 µM) was 46.6% and the viability, T/C (second compound 10 µM, first compound 0.1 µM) was 34.4%.
